Patent publication US20090082368A1, “METHODS OF MODULATING NEUROTROPHIN-MEDIATED ACTIVITY” (PainCeptor Pharma Corporation, priority 2007, published 2009)
Like-named read-outs stand apart in the source and are kept apart here.

What was measured:
[1] = system: NGF receptors on PC12 cells (TrkA+p75); experiment: NGF binding (125I-NGF) using PC12 cells; parameters: species or system rat
Procedure: NGF binding was evaluated using methods familiar to those who are skilled in the art. Briefly, cells expressing one or both NGF receptors (PC12: TrkA+p75; A875: p75 alone; HEK/CHO_trkA: TrkA alone) were harvested by replacing the medium with the cell dissociation buffer (Amersham) and incubating at 37° C. for 15 min. […] For most compounds, multiple dose-response curves were generated.
The IC50 data shown in Tables A-J were acquired using the procedure described herein using PC12 cells.

[2] = system: NGF-induced ERK phosphorylation; experiment: Inhibition of NGF-induced Erk 1/2 phosphorylation (pERK); format: cell-based; settings: Rattus norvegicus, Table 2
Procedure: This assay is useful for establishing that the compounds of the invention are functional NGF antagonists, not receptor agonists (an agonist could conceivably block NGF binding but actually activate the receptor). Erk 1/2 is a kinase activated down stream of TrkA and is a well studied member of the NGF-induced signal transduction cascade.
PC12 cells expressing TrkA and p75 are acutely exposed to 1 ng/mL NGF (15 min; 37° C.; 5% CO2) that is pre-incubated (30 min; room temperature) with or without the compounds. Cells are lysed in Laemmli sample buffer (for SDS-PAGE) or a lysis buffer containing Triton X-100 (for ELISA). Following SDS-PAGE, proteins are electroblotted onto nitrocellulose and immunoprobed for phosphorylated Erk 1 and 2. Blocking and primary antibody incubations of immunoblots are performed in Tris-buffered saline-Tween (10 mM Tris, pH 8.0, 150 mM NaCl, and 0.2% Tween 20) supplemented with 5% (w/v) bovine serum albumin (BSA); secondary antibody incubations are performed in 5% (w/v) dried skim milk powder. Immunoreactive bands are detected by chemiluminescence.
A quantitative method to detect phosphorylated Erk 1/2 by immunofluorescence is also used. Neuroscreen-1 cells are grown in a 96 well plate. NGF preincubated with or without the compounds for 30 minutes, is added to the cells for 5 minutes at 37° C. Cells are then fixed and stained with an antibody against phosphor-ERK 1/2. A fluorescently labeled secondary antibody is used to show the presence of phosphorylated ERK 1/2. Quantitative results are generated by photographing the wells with light of the appropriate wavelength, followed by software based image analysis.

[3] = system: PC12 cells; experiment: Inhibition of NGF-induced neurite outgrowth; format: cell-based; settings: Rattus norvegicus, PC-12, 96 h, Table 3, 4 days exposure to NGF
Procedure: This assay is run as a further functional marker of NGF antagonism and takes advantage of the differentiation of PC12 cells (neurite outgrowth) induced by NGF. Cultures of PC12 cells are grown on Terasaki plates pre-coated with poly-D-lysine. Cells are exposed to NGF (1-50 (preferably 5) ng/ml) to induce neurite outgrowth as described elsewhere [LA Greene & AS Tischler, Establishment of a noradrenergic clonal line of rat adrenal pheochromocytoma cells which respond to nerve growth factor, Proc Natl Acad Sci USA. 1976 July; 73(7): 2424-2428]. In addition to NGF, cells are exposed to varying concentration of the compounds or vehicle. Following 4 days of exposure to NGF in the presence or absence of compound, neurite outgrowth is quantified. A neurite is scored if its caliber from origin to terminal is approximately the same and the length is equal to or greater than 1.5 the cell body diameter. The number of neurite bearing cells per total number of viable cells is calculated for each condition; the number of cells with neurites in the presence of NGF (without compound exposure) is considered to represent maximal (100%) outgrowth, to which the inhibitory effect of compounds of the invention on NGF-induced outgrowth is compared.

[4] = system: spontaneous pain evoked by intraplantar injection of formalin in the rat; experiment: Formalin model of acute tonic pain; format: in vivo; settings: for pain intensity as evaluated by the licking behavior: s.c. 30 min prior to formalin, 2E 0.1-10 mg/kg, 1G 0.4-20 mg/kg, 47G 10-300 μmol/kg, 50G 30 and 100 μmol/kg
Procedure: Male Sprague-Dawley rats are housed together in groups of three animals under standard conditions with unrestricted access to food and water. All experiments are conducted according to the ethical guidelines for investigations of experimental pain in conscious animals (Zimmerman, 1983).
Assessment of formalin-induced flinching behavior in normal, uninjured rats (body weight 200-300 g) is made after formalin (2.5% in saline, 50-100 μl, s.c.) is injected into the plantar surface of the hindpaw using a 27G needle. Rats are pretreated with test compounds either administered intravenously (IV), by subcutaneous injection (SC) or by orally (PO).
Nociceptive behavior is determined manually every 5 min by measuring the amount of time spent in each of four behavioral categories: 0, treatment of the injected hindpaw is indistinguishable from that of the contralateral paw; 1, the injected paw has little or no weight placed on it; 2, the injected paw is elevated and is not in contact with any surface; 3, the injected paw is licked, bitten, or shaken. A weighted nociceptive score, ranging from 0 to 3 is calculated by multiplying the time spent in each category by the category weight, summing these products, and dividing by the total time for each 5 min block of time. (Coderre et al., Pain 1993; 54: 43). On the basis of the resulting response patterns, […] of nociceptive behavior are identified and scored: first phase (P1; 0-5 min), interphase (Int; 6-15 min), second phase (P2; […]), phase 2A (P2A; 16-40 min) and phase 2B (P2B; 41-60 min).
Statistical analysis is performed using the Prism™ 4.01 software package (GraphPad, San Diego, Calif., USA). The difference in response levels between treatment groups and control vehicle group is analyzed using an ANOVA followed by Bonferroni's method for post-hoc pair-wise comparisons. A p value<0.05 is considered to be significant.

[5] = system: hyperalgesia from acute paw inflammation caused by intraplantar λ-carrageenan; experiment: Carrageenan model (inflammatory pain); format: in vivo; settings: rat, SC 10 min pre- and 3 h post-carrageenan, tested 4 h post; 1G 20 mg/kg, 50G 2×105 mg/kg
Procedure: Acute inflammatory hyperalgesia is induced in rats by unilateral injection of 150 μl of a 3% solution of λ-carrageenan into the plantar surface of the left hind paw 3-5 hours prior to testing. Thermal hyperalgesia, mechanical allodynia, mechanical hyperalgesia, weight bearing asymmetry and paw inflammation are determined. Rats are pretreated with test compounds either administered intravenously (IV), by subcutaneous injection (SC) or by oral gavage (PO). Thermal nociceptive thresholds are determined according to the method described elsewhere (Hargreaves et al., 1988). Briefly, through the glass surface, a radiant heat source (8V, 50 W projector bulb) is focused onto the plantar surface of the hind paw. The rat's paw-withdrawal latency to this stimulus is recorded to the nearest 0.1 s. Each latency score is an average of three trials, which are separated by at least 5 min. In all rats, both the injured and uninjured hind paws are similarly tested, allowing direct comparisons between inflamed and non-inflamed paws. Mechanical hyperalgesia is determined by measuring the difference of withdrawal thresholds in response to increasing pressure in the inflamed vs contralateral paw using the Randall-Sellito Paw pressure meter (IITC Life Science) (Randall L O and Sellito J J., 1957). Briefly, rats are held in a contention jacket suspended by a stand and allowed to acclimate for 10 min. […]

[6] = Table 2, read-out: NGF Binding Assay IC50
[7] = Table J (Formula VIII), NGF binding, PC12 cells, read-out: IC50

Question: How did the IC50 [1, 6] turn out when Cn1nnnc1-c1cc2c3c(cccc3c1)C(=O)N(CCCC(=O)O)C2=O [Compound 47G, 4-[5-(1-Methyl-1H-tetrazol-5-yl)-1,3-dioxo-1H-benzo[de]isoquinolin-2(3H)-yl]butanoic acid] was run?
Answer: < 10 µM

Question: What about the IC50 ([1]; Table 3, read-out: NGF Binding Assay IC50) of the same compound?
Answer: < 10 µM

Question: And the IC50 [1, 7]?
Answer: < 10 µM

Question: And the IC50 [2]?
Answer: 15 to 25 µM

Question: What about the IC50 [3] of the same compound?
Answer: 0.1 to 5 µM

Question: And the “pain intensity as evaluated by the licking behavior” value [4]?
Answer: dose-dependent reduction of the pain intensity

Question: What about the ED50 ([4]; sc, given 30 min prior to formalin injection, read-out: ED50, number of licking and biting episodes in phase IIa of the formalin test) of the same compound?
Answer: ~100 µmol/kg

Question: Which IC50 [1, 6] does the source give for O=C(O)CCCN1C(=O)c2cccc3cc(-n4cnnn4)cc(c23)C1=O [Compound 50G, 4-[1,3-Dioxo-5-(1H-tetrazol-1-yl)-1H-benzo[de]isoquinolin-2(3H)-yl]butanoic acid] here?
Answer: < 10 µM

Question: And the IC50 [1, 7]?
Answer: < 10 µM

Question: What about the IC50 [2] of the same compound?
Answer: 5 to 15 µM

Question: What about the “pain intensity as evaluated by the licking behavior” value [4] of the same compound?
Answer: dose-dependent reduction of the pain intensity

Question: And the “mechanical hyperalgesia (Randall-Sellito)” value [5]?
Answer: marginally improving the mechanical hyperalgesia

Question: What about the “thermal hyperalgesia (Hargreaves' assay)” value [5] of the same compound?
Answer: significantly reversed the thermal hyperalgesia
